The test relates to P388 leukemia ip, CD2F1 mice, survival T/C. The test can be described thus: NCI In Vivo Anticancer Drug Screen. Data for tumor model P388 Leukemia (intraperitoneal) in CD2F1 (CDF1) mice. As to conditions: endpoint: median survival time, higher = longer survival. The gist of the method:
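Mice carrying the transplanted tumor received test compound or vehicle. Survival was recorded in each group, and the value is the treated-group measurement divided by that of the vehicle-treated control group.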

Where [1] appears, read: dose: 50.0 mg/kg/injection, schedule: Q01DX005 (ip), vehicle: Klucel (hydroxypropylcellulose) (HPC).
Setting [2] is: dose: 100.0 mg/kg/injection, schedule: Q01DX005 (ip), vehicle: Klucel (hydroxypropylcellulose) (HPC).
[3] abbreviates: dose: 200.0 mg/kg/injection, schedule: Q01DX005 (ip), vehicle: Klucel (hydroxypropylcellulose) (HPC).
[4] abbreviates: dose: 50.0 mg/kg/injection, schedule: Q01DX009 (ip), vehicle: saline sonified.
The mark [5] stands for this setting: dose: 200.0 mg/kg/injection, schedule: Q01DX009 (ip), vehicle: saline sonified.
Where [6] appears, read: dose: 60.0 mg/kg/injection, schedule: Q01DX005 (ip), vehicle: saline with Tween-80.
The mark [7] stands for this setting: dose: 120.0 mg/kg/injection, schedule: Q01DX005 (ip), vehicle: saline with Tween-80.
Where [8] appears, read: dose: 240.0 mg/kg/injection, schedule: Q01DX005 (ip), vehicle: saline with Tween-80.
Setting [9] is: dose: 50.0 mg/kg/injection, schedule: Q01DX009 (ip), vehicle: saline with Tween-80.
Where [10] appears, read: dose: 100.0 mg/kg/injection, schedule: Q01DX009 (ip), vehicle: saline with Tween-80.
Setting [11] is: dose: 200.0 mg/kg/injection, schedule: Q01DX009 (ip), vehicle: saline with Tween-80.
The mark [12] stands for this setting: dose: 50.0 mg/kg/injection, schedule: Q01DX009 (ip), vehicle: Klucel (hydroxypropylcellulose) (HPC).
The mark [13] stands for this setting: dose: 100.0 mg/kg/injection, schedule: Q01DX009 (ip), vehicle: Klucel (hydroxypropylcellulose) (HPC).
Setting [14] is: dose: 200.0 mg/kg/injection, schedule: Q01DX009 (ip), vehicle: Klucel (hydroxypropylcellulose) (HPC).

Where “and” joins values, the source holds several entries; their conditions need not be identical. Identical values can stand only once. Inconclusive results and toxic doses are left out.

As to `Nc1ccc(N=Nc2cccc3c(N=Nc4ccc(N)nc4N)cccc23)c(N)n1`, the T/C is, setting by setting: (dose: 25.0 mg/kg/injection, schedule: Q01DX005 (ip), vehicle: Klucel (hydroxypropylcellulose) (HPC)) 97 % of control; under setting [1], 100 % of control; under setting [2], 98 % of control; under setting [3], 93 % of control.

For `CC[N+](C)(CC)CCOc1ccc(OCC[N+](C)(CC)CC)c2c1C(=O)c1ccccc1C2=O`, the T/C was 98 % of control (dose: 0.78 mg/kg/injection, schedule: Q01DX005 (ip), vehicle: saline); 109 % of control (dose: 1.56 mg/kg/injection, schedule: Q01DX005 (ip), vehicle: saline); 100 % of control (dose: 3.12 mg/kg/injection, schedule: Q01DX005 (ip), vehicle: saline).

In the case of `C=C(C)CC1=C(C)C(=O)C(C)=C(C)C1=O`, the T/C (dose: 75.0 mg/kg/injection, schedule: Q04DX003 (ip), vehicle: Klucel (hydroxypropylcellulose) (HPC)) is 110 % of control; the T/C (dose: 150.0 mg/kg/injection, schedule: Q04DX003 (ip), vehicle: Klucel (hydroxypropylcellulose) (HPC)) is 105 % of control; the T/C (dose: 300.0 mg/kg/injection, schedule: Q04DX003 (ip), vehicle: Klucel (hydroxypropylcellulose) (HPC)) is 122 % of control.

As for `COc1ccccc1-n1c(=O)c(N=Nc2ccccc2Cl)c(O)n(-c2ccccc2Cl)c1=S`, the T/C is, setting by setting: (dose: 100.0 mg/kg/injection, schedule: Q01DX001 (ip), vehicle: Klucel (hydroxypropylcellulose) (HPC)) 101 % of control; (dose: 200.0 mg/kg/injection, schedule: Q01DX001 (ip), vehicle: Klucel (hydroxypropylcellulose) (HPC)) 100 % of control; (dose: 400.0 mg/kg/injection, schedule: Q01DX001 (ip), vehicle: Klucel (hydroxypropylcellulose) (HPC)) 101 % of control.

`CC(C)(CCC(=O)O)C(=O)O`: the T/C under setting [4] is 91 % of control and the T/C under setting [5] is 87 % of control.

Consider `ClCCN(CCCN(CCCl)c1ccccc1)c1ccccc1`, for which the T/C by setting is: (dose: 200.0 mg/kg/injection, schedule: Q01DX001 (ip), vehicle: saline with Tween-80) 164 % of control; (dose: 400.0 mg/kg/injection, schedule: Q01DX001 (ip), vehicle: saline with Tween-80) 150 % of control and 157 % of control; (dose: 800.0 mg/kg/injection, schedule: Q01DX001 (ip), vehicle: saline with Tween-80) 160 % of control.

As for `CCc1[nH]nc(-c2n[nH]c(CC)c2C)c1C`, the T/C runs as follows: (dose: 60.0 mg/kg/injection, schedule: Q01DX005 (ip), vehicle: saline) 100 % of control; (dose: 120.0 mg/kg/injection, schedule: Q01DX005 (ip), vehicle: saline) 102 % of control; (dose: 240.0 mg/kg/injection, schedule: Q01DX005 (ip), vehicle: saline) 98 % of control.

Turning to `CC1=CC2=C(C(N)=O)C(=O)OC2(C)C(c2ccccc2)C1` (configuration not stated), the T/C was 101 % of control under setting [6], 101 % of control under setting [7] and 100 % of control under setting [8].

Consider `CCOP(=S)(Oc1cnn(C)c(=O)c1OC)OC(C)C` (configuration not stated), for which the T/C was 98 % of control (dose: 0.78 mg/kg/injection, schedule: Q01DX005 (ip), vehicle: saline with Tween-80); 100 % of control (dose: 1.56 mg/kg/injection, schedule: Q01DX005 (ip), vehicle: saline with Tween-80); 98 % of control (dose: 3.13 mg/kg/injection, schedule: Q01DX005 (ip), vehicle: saline with Tween-80).

As to `COC(=O)C1c2c(C)cc3n2C(C=C(C)C3)C1C(=O)OC` (configuration not stated), the T/C runs as follows: (dose: 100.0 mg/kg/injection, schedule: Q04DX003 (ip), vehicle: Klucel (hydroxypropylcellulose) (HPC)) 100 % of control; (dose: 200.0 mg/kg/injection, schedule: Q04DX003 (ip), vehicle: Klucel (hydroxypropylcellulose) (HPC)) 105 % of control; (dose: 400.0 mg/kg/injection, schedule: Q04DX003 (ip), vehicle: Klucel (hydroxypropylcellulose) (HPC)) 95 % of control.

Take `COC(=O)CC(OC)c1nc(C(=O)OC)c(C)c(=O)[nH]1` (configuration not stated): the T/C (dose: 4.0 mg/kg/injection, schedule: Q01DX009 (ip), vehicle: water) was 111 % of control; the T/C (dose: 8.0 mg/kg/injection, schedule: Q01DX009 (ip), vehicle: water) is 101 % of control; the T/C (dose: 16.0 mg/kg/injection, schedule: Q01DX009 (ip), vehicle: water) is 96 % of control; the T/C (dose: 32.0 mg/kg/injection, schedule: Q01DX009 (ip), vehicle: water) is 99 % of control; the T/C (dose: 64.0 mg/kg/injection, schedule: Q01DX009 (ip), vehicle: water) was 102 % of control; the T/C (dose: 128.0 mg/kg/injection, schedule: Q01DX009 (ip), vehicle: water) is 105 % of control.

As to `OC1C2CCC1C(N1CCOCC1)CC2` (configuration not stated), the T/C by setting is: under setting [4], 100 % of control; (dose: 100.0 mg/kg/injection, schedule: Q01DX009 (ip), vehicle: saline sonified) 100 % of control; under setting [5], 105 % of control.

Turning to `CCN(CC)CCCC(C)Nc1c2ccc(Cl)cc2nc2cc(N=Nc3cccc4ccccc34)c(OC)cc12` (configuration not stated), the T/C by setting is: (dose: 25.0 mg/kg/injection, schedule: Q04DX003 (ip), vehicle: saline with Tween-80) 92 % of control; (dose: 50.0 mg/kg/injection, schedule: Q04DX003 (ip), vehicle: saline with Tween-80) 92 % of control; (dose: 100.0 mg/kg/injection, schedule: Q04DX003 (ip), vehicle: saline with Tween-80) 118 % of control.

As for `O=S(=O)(O/C(=C(\OS(=O)(=O)C(F)(F)C(F)(F)C(F)(F)C(F)(F)F)c1ccccc1)c1ccccc1)C(F)(F)C(F)(F)C(F)(F)C(F)(F)F`, the T/C under setting [6] was 99 % of control, the T/C under setting [7] was 107 % of control and the T/C under setting [8] is 99 % of control.

For `Cc1ccc(S(=O)(=O)N=S(C)C)cc1`, the T/C is 117 % of control (dose: 6.25 mg/kg/injection, schedule: Q01DX009 (ip), vehicle: other); 107 % of control (dose: 12.5 mg/kg/injection, schedule: Q01DX009 (ip), vehicle: other); 113 % of control (dose: 25.0 mg/kg/injection, schedule: Q01DX009 (ip), vehicle: other); 118 % of control (dose: 50.0 mg/kg/injection, schedule: Q01DX009 (ip), vehicle: other); 100 % of control under setting [9]; 106 % of control under setting [10]. In addition, the T/C under setting [11] was 111 % of control and the T/C (dose: 400.0 mg/kg/injection, schedule: Q01DX009 (ip), vehicle: saline with Tween-80) is 116 % of control.

In the case of `CSc1nc(N)c(C(=O)Nc2ccc([N+](=O)[O-])cc2)s1`, the T/C reads like this: under setting [12], 99 % of control; under setting [13], 99 % of control; under setting [14], 100 % of control.

As for `[Cl][Ru]([Cl])([Cl])([Cl])([Cl])[Cl]`, the T/C runs as follows: (dose: 6.25 mg/kg/injection, schedule: Q04DX003 (ip), vehicle: saline) 117 % of control and 123 % of control; (dose: 12.5 mg/kg/injection, schedule: Q04DX003 (ip), vehicle: saline) 117 % of control and 123 % of control; (dose: 25.0 mg/kg/injection, schedule: Q04DX003 (ip), vehicle: saline) 117 % of control; (dose: 50.0 mg/kg/injection, schedule: Q04DX003 (ip), vehicle: saline) 123 % of control; (dose: 100.0 mg/kg/injection, schedule: Q04DX003 (ip), vehicle: saline) 111 % of control.

Consider `N#CC(=C1SCS1)[N+](=O)[O-]`, for which the T/C reads like this: (dose: 1.56 mg/kg/injection, schedule: Q01DX009 (ip), vehicle: saline) 121 % of control; (dose: 3.13 mg/kg/injection, schedule: Q01DX009 (ip), vehicle: saline with Tween-80) 121 % of control.

Regarding `NNS(=O)(=O)c1cc(Cl)c(Cl)cc1Cl`, the T/C runs as follows: under setting [12], 94 % of control; under setting [13], 98 % of control; under setting [14], 95 % of control.

With `CC(C)C(=O)N[C@H]1C[C@H]2CCC1(C)C2(C)C`, the T/C reads like this: under setting [1], 103 % of control and 93 % of control; under setting [2], 107 % of control and 96 % of control; under setting [3], 111 % of control and 95 % of control.

With `CCOC(=O)C(=O)C1CC(c2ccccc2)=NNC1=O` (configuration not stated), the T/C is 99 % of control under setting [9], 103 % of control under setting [10] and 96 % of control under setting [11].

(Values after PubChem BioAssay AID330 (DTP/NCI, 2004).)
